Experimental data from ChEMBL document CHEMBL6074646, “Carvacrol-conjugated 3-Hydroxybenzoic Acids: Design, Synthesis, cardioprotective potential against doxorubicin-induced Cardiotoxicity, and ADMET study” (Bioorg Med Chem Lett, 2024).
Activity calls are given as the source filed them. The calls are words filed in the database; no cut-off is given here.

What was measured:
H9c2 [1] = test: Protection against doxorubicin-induced cardiotoxicity in rat H9c2 cells assessed as increase in cell viability at 10 uM preincubated for 24 hrs followed by doxorubicin stimulation and measured after 24 hrs; type: functional, cell-based; conditions: time 48.0 hrs
H9c2 [2] = test: Cytotoxicity against rat H9C2 cells at 10 uM incubated for 48 hrs by cell counting assay; type: toxicity, cell-based; conditions: h9c2, 48 h

| SMILES | Activity (H9c2 [1]) | Activity (H9c2 [2]) |
| --- | --- | --- |
| Cc1ccc(C(C)C)cc1OCCCCOC(=O)c1cccc(O)c1 | Active | Non-toxic |
| Cc1cc(CO)c(C(C)C)cc1OC(=O)CCOC(=O)c1cccc(O)c1 | inactive | Non-toxic |
| Cc1ccc(C(C)C)cc1OC(=O)CCCOC(=O)c1cccc(O)c1 | – | Non-toxic |
| Cc1ccc(C(C)C)cc1OCCCOC(=O)c1cccc(O)c1 | – | Non-toxic |
| Cc1ccc(C(C)C)cc1OC(=O)COC(=O)c1cccc(O)c1 | – | Non-toxic |
| Cc1ccc(C(C)C)cc1OCCOC(=O)c1cccc(O)c1 | – | Non-toxic |
| Cc1cc(CO)c(C(C)C)cc1OC(=O)COC(=O)c1cccc(O)c1 | inactive | Non-toxic |
| Cc1cc(CO)c(C(C)C)cc1OC(=O)CCCOC(=O)c1cccc(O)c1 | inactive | Non-toxic |
| Cc1ccc(C(C)C)cc1OC(=O)CCOC(=O)c1cccc(O)c1 | – | Non-toxic |
| Cc1cc(CO)c(C(C)C)cc1OCCCCOC(=O)c1cccc(O)c1 | inactive | Non-toxic |
| O=C(O)c1cccc(O)c1 [3-HYDROXYBENZOIC ACID] | inactive | Non-toxic |
| Cc1ccc(C(C)C)cc1O [CARVACROL] | inactive | Non-toxic |
| Cc1cc(CO)c(C(C)C)cc1OCCCOC(=O)c1cccc(O)c1 | inactive | Non-toxic |
| Cc1cc(CO)c(C(C)C)cc1OCCOC(=O)c1cccc(O)c1 | inactive | Non-toxic |
